The record followed here is patent publication US8921576B2, “Spiroindoline compound, and medicinal agent comprising same” (Kowa Company, Ltd., priority 2011, dated 2014).

SMILES strings stand for the structures.

One assay has as its target T1, GST-GK derived from human liver GK (Homo sapiens, UniProt P35557).
T1 construct: made in house; host or cells: Escherichia coli DH5α
T1 sequence (P35557 1-466 isoform P35557-2): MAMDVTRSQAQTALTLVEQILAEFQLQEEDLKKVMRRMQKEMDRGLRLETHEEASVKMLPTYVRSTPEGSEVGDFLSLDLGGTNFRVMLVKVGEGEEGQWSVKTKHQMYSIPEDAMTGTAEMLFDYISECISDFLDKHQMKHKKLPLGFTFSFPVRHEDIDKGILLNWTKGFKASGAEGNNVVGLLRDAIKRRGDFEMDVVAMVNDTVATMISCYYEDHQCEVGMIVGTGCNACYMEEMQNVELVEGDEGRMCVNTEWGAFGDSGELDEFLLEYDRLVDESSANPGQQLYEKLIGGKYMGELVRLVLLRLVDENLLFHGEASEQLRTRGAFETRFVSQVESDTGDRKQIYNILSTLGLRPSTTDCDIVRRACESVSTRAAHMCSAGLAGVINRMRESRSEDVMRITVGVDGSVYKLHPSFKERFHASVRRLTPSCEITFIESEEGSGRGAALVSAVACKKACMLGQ
Nature of the assay: In vitro GK activity measurement test (G6PDH-coupled, OD340). It is filed as biochemical. Particulars: test compound 1 μmol/L; glucose 2.5 mmol/L; 25° C.; OD340 slope with compound / without compound; read-out: GK activation rate (%). The method, boiled down: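 GST-fused human liver glucokinase (variant 2, E. coli-expressed) at 0.1 μg/mL final, in pH 7.1 Hepes with 2.5 mmol/L glucose, 5 mmol/L ATP, NADP and G6PDH coupling, at 25° C. OD340 slope monitored over 10 min. Activation rate is slope with test compound (1 μmol/L) divided by slope without.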
`CC(=O)OCC(=O)N1CC[C@@]2(C1)CN(C(=O)Nc1ncc(Cl)s1)c1ccc(Cl)cc12` [Example 52, (R)-2-(5-chloro-1-((5-chlorothiazol-2-yl)carbamoyl)spiro[indoline-3,3′-pyrrolidin]-1′-yl)-2-oxoethyl acetate]: the activity at 1 µM was 531%.

As to `COCCCSc1cnc(NC(=O)N2CC3(CCN(C(=O)OC)C3)c3cc(Cl)ccc32)s1` (stereo not drawn) [Example 162, Methyl 5-chloro-1-((5-((3-methoxypropyl)thio)thiazol-2-yl)carbamoyl)spiro[indoline-3,3′-pyrrolidine]-1′-carboxylate], the activity at 1 µM was 484%.

As to `COC(=O)N1CC[C@@]2(C1)CN(C(=O)Nc1ncc(F)s1)c1ccc(Cl)cc12` [Example 355, (S)-methyl 5-chloro-1-((5-fluorothiazol-2-yl)carbamoyl)spiro[indoline-3,3′-pyrrolidine]-1′-carboxylate], the activity at 1 µM was 636%.

Regarding `CNC(=O)N1CC[C@@]2(C1)CN(C(=O)Nc1ncc(OC)s1)c1ccc(C#N)cc12` [Example 381, (R)-5-Cyano-N1-(5-methoxythiazol-2-yl)-N1′-methylspiro[indoline-3,3′-pyrrolidine]-1,1′-dicarboxamide], the activity at 1 µM is 465%.

With `CNC(=O)C(=O)N1CCC2(C1)CN(C(=O)Nc1ncc(Cl)s1)c1ccc(Cl)cc12` (stereo not drawn) [Example 46, 5-chloro-N-(5-chlorothiazol-2-yl)-1′-(2-(methylamino)-2-oxoacetyl)spiro[indoline-3,3′-pyrrolidine]-1-carboxamide], the activity at 1 µM came to 499%.

With `COCCN(Cc1ccccc1)S(=O)(=O)c1ccc2c(c1)[C@@]1(CCN(C(=O)OC)C1)CN2C(=O)Nc1nc2ccc(OC)nc2s1` [Example 344, (S)-methyl 5-(N-benzyl-N-(2-methoxyethyl)sulfamoyl)-1-((5-methoxythiazolo[5,4-b]pyridin-2-yl)carbamoyl)spiro[indoline-3,3′-pyrrolidine]-1′-carboxylate], the activity at 1 µM is 647%.

For `CNC(=O)CCSc1cnc(NC(=O)N2CC3(CCN(C(=O)OC)C3)c3cc(Cl)ccc32)s1` (stereo not drawn) [Example 151, methyl 5-chloro-1-((5-((3-(methylamino)-3-oxopropyl)thio)thiazol-2-yl)carbamoyl)spiro[indoline-3,3′-pyrrolidine]-1′-carboxylate], the activity at 1 µM was 656%.

As to `CS(=O)(=O)CCNC(=O)N1CCC2(C1)CN(C(=O)Nc1ncc(Cl)s1)c1ccc(Cl)cc12` (stereo not drawn) [Example 467, 5-chloro-N1-(5-chlorothiazol-2-yl)-N1′-(2-(methylsulfonyl)ethyl)spiro[indoline-3,3′-pyrrolidine]-1,1′-dicarboxamide], the activity at 1 µM amounted to 480%.

For the molecule `CCOC(=O)CSc1cnc(NC(=O)N2C[C@]3(CCN(C(=O)OC)C3)c3cc(Br)ccc32)s1` [Example 334, (S)-methyl 5-bromo-1-((5-((2-ethoxy-2-oxoethyl)thio)thiazol-2-yl)carbamoyl)spiro[indoline-3,3′-pyrrolidine]-1′-carboxylate], the activity at 1 µM came to 705%.

In the case of `O=C(NCCCCO)N1CCC2(C1)CN(C(=O)Nc1ncc(Cl)s1)c1ccc(Cl)cc12` (stereo not drawn) [Example 470, 5-chloro-N1-(5-chlorothiazol-2-yl)-N1′-(4-hydroxybutyl)spiro[indoline-3,3′-pyrrolidine]-1,1′-dicarboxamide], the activity at 1 µM is 459%.

For `O=C(NCCCO)N1CCC2(C1)CN(C(=O)Nc1ncc(Cl)s1)c1ccc(Cl)cc12` (stereo not drawn) [Example 464, 5-chloro-N1-(5-chlorothiazol-2-yl)-N1′-(3-hydroxypropyl)spiro[indoline-3,3′-pyrrolidine]-1,1′-dicarboxamide], the activity at 1 µM is 526%.

Take `COC(=O)N1CC[C@@]2(C1)CN(C(=O)Nc1ncc(SCC(=O)O)s1)c1ccc(Br)cc12` [Example 336, (S)-2-((2-(5-bromo-1′-(methoxycarbonyl)spiro[indoline-3,3′-pyrrolidin]-1-ylcarboxamido)thiazol-5-yl)thio)acetic acid]: the activity at 1 µM amounted to 451%.

`COC(=O)N1CCC2(C1)CN(C(=O)Nc1nc3ccc(OC)nc3s1)c1ccc(S(=O)(=O)N(CCC(=O)O)Cc3ccccc3)cc12` (stereo not drawn) [Example 307, 3-(N-benzyl-1′-(methoxycarbonyl)-1-((5-methoxythiazolo[5,4-b]pyridin-2-yl)carbamoyl)spiro[indoline-3,3′-pyrrolidin]-5-ylsulfonamido)propionic acid]: the activity at 1 µM is 887%.

Regarding `COC(=O)N1CCC2(C1)CN(C(=O)Nc1ncc(SCCCO)s1)c1ccc(Cl)cc12` (stereo not drawn) [Example 161, Methyl 5-chloro-1-((5-((3-hydroxypropyl)thio)thiazol-2-yl)carbamoyl)spiro[indoline-3,3′-pyrrolidine]-1′-carboxylate], the activity at 1 µM is 514%.

As for `O=C(NO)N1CCC2(C1)CN(C(=O)Nc1ncc(Cl)s1)c1ccc(Cl)cc12` (stereo not drawn) [Example 481, 5-chloro-N1-(5-chlorothiazol-2-yl)-N1′-hydroxyspiro[indoline-3,3′-pyrrolidine]-1,1′-dicarboxamide], the activity at 1 µM came to 602%.

`O=C(CCCNC(=O)N1CCC2(C1)CN(C(=O)Nc1ncc(Cl)s1)c1ccc(Cl)cc12)N1CCC1` (stereo not drawn) [Example 471, N1′-(4-(Azetidin-1-yl)-4-oxobutyl)-5-chloro-N1-(5-chlorothiazol-2-yl)spiro[indoline-3,3′-pyrrolidine]-1,1′-dicarboxamide]: the activity at 1 µM was determined as 470%.

For the molecule `CNC(=O)N1CCC2(C1)CN(C(=O)Nc1ncc(Cl)s1)c1ccc(Cl)cc12` (stereo not drawn) [Example 373, 5-chloro-N1-(5-chlorothiazol-2-yl)-N1′-methylspiro[indoline-3,3′-pyrrolidine]-1,1′-dicarboxamide], the activity at 1 µM was 476%.

Another assay deals with normal mice (C57BL/6j mice). Nature of the assay: Oral glucose tolerance test after single administration of test compound in normal mice. It is filed as in vivo. To be noted: 30 mg/kg oral in 10% Gelucire44/14; 2 g/kg glucose oral 30 minutes later; versus solvent alone; FIG. 1. The protocol: FIG. 1 is a view showing the results of an oral sugar tolerance test that was carried out after completion of a single administration of the compound of Example 68, in which the 30 mg/kg compound was orally administered to normal mice, and 30 minutes later, 2 g/kg glucose was orally administered thereto, followed by confirmation of a hypoglycemic action of the compound.
The test compound (Example 68) (30 mg/kg) suspended in 10% (v/v) Gelucire44/14 (GATTEFOSSE) was orally administered to normal mice (C57BL/6j mice, CLEA Japan, Inc.). Thirty minutes later, 2 g/kg glucose was orally administered to the mice. The blood glucose level was measured using an automatic blood glucose level measurement apparatus (Medisafe, TERUMO), before administration of the test compound, 25 minutes after administration of the test compound, and 15, 30, 60, and 120 minutes after administration of glucose. Thus, the action of the test compound to lower blood glucose level was evaluated.
On to `CC(=O)N1CCC2(C1)CN(C(=O)Nc1ncc(F)s1)c1ccc(Cl)cc12` (stereo not drawn) [Example 68, 1′-acetyl-5-chloro-N-(5-fluorothiazol-2-yl)spiro[indoline-3,3′-pyrrolidine]-1-carboxamide], for which the “blood glucose level (action to lower blood glucose level)” value was “lower than that of the mice orally administered with the solvent alone”.
